According to the NIST ThermoML archive (doi:10.1021/acs.jced.6b00121):

Assay: xn = mol fraction of the nth substance listed
Details: 100 kPa, Liquid; for viscosity: Falling or rolling sphere viscometry; for mass density: Vibrating tube method

CCCCCCCCCCC [undecane] + CCCCCCO
Details	mass density [kg/m3]	viscosity [mPa·s]
283.15 K, x1 = 0.1011	812.86	5.655
283.15 K, x1 = 0.1989	802.1	4.274
283.15 K, x1 = 0.2998	792.19	3.34
283.15 K, x1 = 0.4001	783.5	2.615
283.15 K, x1 = 0.4994	775.87	2.198
283.15 K, x1 = 0.6004	768.89	1.95
283.15 K, x1 = 0.6989	762.82	1.72
283.15 K, x1 = 0.8001	757.18	1.564
283.15 K, x1 = 0.8991	752.28	1.455
283.15 K, x1 = 1	747.78	1.371
288.15 K, x1 = 0.1011	809.29	4.784
288.15 K, x1 = 0.1989	798.49	3.651
288.15 K, x1 = 0.2998	788.53	2.88
288.15 K, x1 = 0.4001	779.81	2.322
288.15 K, x1 = 0.4994	772.18	2.019
288.15 K, x1 = 0.6004	765.18	1.752
288.15 K, x1 = 0.6989	759.1	1.554
288.15 K, x1 = 0.8001	753.47	1.419
288.15 K, x1 = 0.8991	748.57	1.329
288.15 K, x1 = 1	744.06	1.249
293.15 K, x1 = 0.1011	805.71	4.073
293.15 K, x1 = 0.1989	794.85	3.136
293.15 K, x1 = 0.2998	784.85	2.505
293.15 K, x1 = 0.4001	776.12	2.118
293.15 K, x1 = 0.4994	768.47	1.808
293.15 K, x1 = 0.6004	761.46	1.58
293.15 K, x1 = 0.6989	755.38	1.41
293.15 K, x1 = 0.8001	749.75	1.293
293.15 K, x1 = 0.8991	744.85	1.218
293.15 K, x1 = 1	740.35	1.145
298.15 K, x1 = 0.1011	802.1	3.494
298.15 K, x1 = 0.1989	791.2	2.719
298.15 K, x1 = 0.2998	781.16	2.198
298.15 K, x1 = 0.4001	772.4	1.886
298.15 K, x1 = 0.4994	764.75	1.626
298.15 K, x1 = 0.6004	757.73	1.432
298.15 K, x1 = 0.6989	751.65	1.284
298.15 K, x1 = 0.8001	746.02	1.182
298.15 K, x1 = 0.8991	741.12	1.116
298.15 K, x1 = 1	736.64	1.062
303.15 K, x1 = 0.1011	798.47	3.016
303.15 K, x1 = 0.1989	787.52	2.374
303.15 K, x1 = 0.2998	777.45	1.952
303.15 K, x1 = 0.4001	768.67	1.687
303.15 K, x1 = 0.4994	761.01	1.47
303.15 K, x1 = 0.6004	753.98	1.305
303.15 K, x1 = 0.6989	747.89	1.176
303.15 K, x1 = 0.8001	742.27	1.09
303.15 K, x1 = 0.8991	737.38	1.031
303.15 K, x1 = 1	732.93	0.982
308.15 K, x1 = 0.1011	794.81	2.62
308.15 K, x1 = 0.1989	783.82	2.09
308.15 K, x1 = 0.2998	773.71	1.746
308.15 K, x1 = 0.4001	764.91	1.517
308.15 K, x1 = 0.4994	757.24	1.334
308.15 K, x1 = 0.6004	750.21	1.193
308.15 K, x1 = 0.6989	744.12	1.08
308.15 K, x1 = 0.8001	738.5	1.002
308.15 K, x1 = 0.8991	733.62	0.954
308.15 K, x1 = 1	729.23	0.91
313.15 K, x1 = 0.1011	791.12	2.29
313.15 K, x1 = 0.1989	780.08	1.857
313.15 K, x1 = 0.2998	769.94	1.574
313.15 K, x1 = 0.4001	761.13	1.372
313.15 K, x1 = 0.4994	753.45	1.226
313.15 K, x1 = 0.6004	746.41	1.106
313.15 K, x1 = 0.6989	740.32	0.996
313.15 K, x1 = 0.8001	734.71	0.927
313.15 K, x1 = 0.8991	729.84	0.886
313.15 K, x1 = 1	725.53	0.847
318.15 K, x1 = 0.1011	787.39	2.02
318.15 K, x1 = 0.1989	776.31	1.664
318.15 K, x1 = 0.2998	766.14	1.437
318.15 K, x1 = 0.4001	757.31	1.245
318.15 K, x1 = 0.4994	749.63	1.1
318.15 K, x1 = 0.6004	742.59	1.008
318.15 K, x1 = 0.6989	736.5	0.921
318.15 K, x1 = 0.8001	730.9	0.861
318.15 K, x1 = 0.8991	726.05	0.822
318.15 K, x1 = 1	721.82	0.79
323.15 K, x1 = 0.1011	–	1.799
323.15 K, x1 = 0.1989	–	1.528
323.15 K, x1 = 0.2998	–	1.301
323.15 K, x1 = 0.4001	–	1.136
323.15 K, x1 = 0.4994	–	1.011
323.15 K, x1 = 0.6004	–	0.931
323.15 K, x1 = 0.6989	–	0.853
323.15 K, x1 = 0.8001	–	0.801
323.15 K, x1 = 0.8991	–	0.773
323.15 K, x1 = 1	–	0.74
